Laboratory results: patent US20240358693A1, “METHODS OF TREATING PAIN” (Aisa Pharma, Inc., priority 2023, published 2024)

System: participants with SSc-RP
Assay: Average duration of weekly RP attacks (minutes)
Format: in vivo, human
Excerpt: The absolute change in average duration of weekly RP attacks from baseline to the end of each dosing period was and will be a secondary outcome variable. The sponsor-developed participant-informed diary was and will be used to record data. Average duration of weekly RP attacks is defined as the total duration of RP attacks divided by total number of RP attacks within the last 7 days of each dosing period. Total duration of RP attacks during the last 7 days of screening period divided by the total number of RP attacks will be used as baseline for the analysis of all periods. The variable will be calculated similar to frequency data as before.

[1] = Pooled Cilnidipine 10 mg and Cilnidipine 10 mg + Tadalafil 5 mg, Excluding Outliers, by Baseline RCS, subgroup 2, ITT Population - Part A
[2] = Pooled Cilnidipine 10 mg and Cilnidipine 10 mg + Tadalafil 5 mg, ITT Part A
[3] = Pooled Cilnidipine 10 mg and Cilnidipine 10 mg + Tadalafil 5 mg, by Baseline RCS, subgroup 1, ITT Population - Part A
[4] = Pooled Cilnidipine 10 mg and Cilnidipine 10 mg + Tadalafil 5 mg, by Baseline RCS, subgroup 2, ITT Population - Part A
[5] = Pooled Cilnidipine 20 mg and Cilnidipine 20 mg + Tadalafil 5 mg, n=4, Excluding Outliers, ITT Part A
[6] = Pooled Cilnidipine 20 mg and Cilnidipine 20 mg + Tadalafil 5 mg, n=4, ITT Part A
[7] = Pooled Cilnidipine 20 mg and Cilnidipine 20 mg + Tadalafil 5 mg, Baseline RCS subgroup 1 (unnamed), ITT Part A
[8] = Pooled Cilnidipine 20 mg and Cilnidipine 20 mg + Tadalafil 5 mg, Baseline RCS subgroup 2 (unnamed), ITT Part A
[9] = Pooled Cilnidipine 20 mg and Cilnidipine 20 mg + Tadalafil 5 mg, Excluding Outliers, Baseline RCS subgroup 1 (unnamed), ITT Part A
[10] = Pooled Cilnidipine 20 mg and Cilnidipine 20 mg + Tadalafil 5 mg, Excluding Outliers, Baseline RCS subgroup 2 (unnamed), ITT Part A
[11] = Pooled Cilnidipine 20 mg and Cilnidipine 20 mg + Tadalafil 5 mg, Excluding Outliers, ITT Population - Part A
[12] = Pooled Cilnidipine 20 mg and Cilnidipine 20 mg + Tadalafil 5 mg, Excluding Outliers, by Baseline RCS, subgroup 1, ITT Population - Part A

COCCOC(=O)C1=C(C)NC(C)=C(C(=O)OC/C=C/c2ccccc2)C1c1cccc([N+](=O)[O-])c1 (stereo not shown) [Cilnidipine, cilnidipine]
Average Duration of Weekly RP Attacks (All Attacks) Change from Baseline, Mean [1]: -20.38 min | Average Duration of Weekly RP Attacks (All Attacks) Change from Baseline, Median [1]: -20.38 min | Average Duration of Weekly RP Attacks (All Attacks) Percent Change from Baseline, Mean [1]: −37.36% | Average Duration of Weekly RP Attacks (All Attacks) Percent Change from Baseline, Median [1]: −37.36% | Average Duration of Weekly RP Attacks (All Attacks), Mean [1]: 34.17 min | Average Duration of Weekly RP Attacks (All Attacks), Median [1]: 34.17 min | Average Duration of Weekly RP Attacks (All Attacks) Change from Baseline, Mean [2]: -9.54 min | Average Duration of Weekly RP Attacks (All Attacks) Change from Baseline, Median [2]: -8.48 min | Average Duration of Weekly RP Attacks (All Attacks) Percent Change from Baseline, Mean [2]: −19.10% | Average Duration of Weekly RP Attacks (All Attacks) Percent Change from Baseline, Median [2]: −21.20% | Average Duration of Weekly RP Attacks (All Attacks), Mean [2]: 27.90 min | Average Duration of Weekly RP Attacks (All Attacks), Median [2]: 31.52 min | Average Duration of Weekly RP Attacks (All Attacks) Change from Baseline, Mean [3]: -4.13 min | Average Duration of Weekly RP Attacks (All Attacks) Change from Baseline, Median [3]: -4.13 min | Average Duration of Weekly RP Attacks (All Attacks) Percent Change from Baseline, Mean [3]: −9.97% | Average Duration of Weekly RP Attacks (All Attacks) Percent Change from Baseline, Median [3]: −9.97% | Average Duration of Weekly RP Attacks (All Attacks), Mean [3]: 24.76 min | Average Duration of Weekly RP Attacks (All Attacks), Median [3]: 24.76 min | Average Duration of Weekly RP Attacks (All Attacks) Change from Baseline, Mean [4]: -20.38 min | Average Duration of Weekly RP Attacks (All Attacks) Change from Baseline, Median [4]: -20.38 min | Average Duration of Weekly RP Attacks (All Attacks) Percent Change from Baseline, Mean [4]: −37.36% | Average Duration of Weekly RP Attacks (All Attacks) Percent Change from Baseline, Median [4]: −37.36% | Average Duration of Weekly RP Attacks (All Attacks), Mean [4]: 34.17 min | Average Duration of Weekly RP Attacks (All Attacks), Median [4]: 34.17 min | Average Duration of Weekly Symptomatic RP Attacks, Change from Baseline, Mean [5]: -7.51 min | Average Duration of Weekly Symptomatic RP Attacks, Change from Baseline, Median [5]: -3.55 min | Average Duration of Weekly Symptomatic RP Attacks, Mean [5]: 27.98 min | Average Duration of Weekly Symptomatic RP Attacks, Median [5]: 22.96 min | Average Duration of Weekly Symptomatic RP Attacks, Percent Change from Baseline, Mean [5]: −16.40% | Average Duration of Weekly Symptomatic RP Attacks, Percent Change from Baseline, Median [5]: −7.30% | Average Duration of Weekly Symptomatic RP Attacks, Change from Baseline, Mean [6]: -7.51 min | Average Duration of Weekly Symptomatic RP Attacks, Change from Baseline, Median [6]: -3.55 min | Average Duration of Weekly Symptomatic RP Attacks, Mean [6]: 27.98 min | Average Duration of Weekly Symptomatic RP Attacks, Median [6]: 22.96 min | Average Duration of Weekly Symptomatic RP Attacks, Percent Change from Baseline, Mean [6]: −16.40% | Average Duration of Weekly Symptomatic RP Attacks, Percent Change from Baseline, Median [6]: −7.30% | Average Duration of Weekly Symptomatic RP Attacks, Change from Baseline, Mean [7]: -1.01 min | Average Duration of Weekly Symptomatic RP Attacks, Change from Baseline, Median [7]: 3.24 min | Average Duration of Weekly Symptomatic RP Attacks, Mean [7]: 16.31 min | Average Duration of Weekly Symptomatic RP Attacks, Median [7]: 15.46 min | Average Duration of Weekly Symptomatic RP Attacks, Percent Change from Baseline, Mean [7]: −11.86% | Average Duration of Weekly Symptomatic RP Attacks, Percent Change from Baseline, Median [7]: 15.41% | Average Duration of Weekly Symptomatic RP Attacks, Change from Baseline, Mean [8]: -27.00 min | Average Duration of Weekly Symptomatic RP Attacks, Change from Baseline, Median [8]: -27.00 min | Average Duration of Weekly Symptomatic RP Attacks, Mean [8]: 63.00 min | Average Duration of Weekly Symptomatic RP Attacks, Median [8]: 63.00 min | Average Duration of Weekly Symptomatic RP Attacks, Percent Change from Baseline, Mean [8]: −30.00% | Average Duration of Weekly Symptomatic RP Attacks, Percent Change from Baseline, Median [8]: −30.00% | Average Duration of Weekly Symptomatic RP Attacks, Change from Baseline, Mean [9]: -1.01 min | Average Duration of Weekly Symptomatic RP Attacks, Change from Baseline, Median [9]: 3.24 min | Average Duration of Weekly Symptomatic RP Attacks, Mean [9]: 16.31 min | Average Duration of Weekly Symptomatic RP Attacks, Median [9]: 15.46 min | Average Duration of Weekly Symptomatic RP Attacks, Percent Change from Baseline, Mean [9]: −11.86% | Average Duration of Weekly Symptomatic RP Attacks, Percent Change from Baseline, Median [9]: 15.41% | Average Duration of Weekly Symptomatic RP Attacks, Change from Baseline, Mean [10]: -27.00 min | Average Duration of Weekly Symptomatic RP Attacks, Change from Baseline, Median [10]: -27.00 min | Average Duration of Weekly Symptomatic RP Attacks, Mean [10]: 63.00 min | Average Duration of Weekly Symptomatic RP Attacks, Median [10]: 63.00 min | Average Duration of Weekly Symptomatic RP Attacks, Percent Change from Baseline, Mean [10]: −30.00% | Average Duration of Weekly Symptomatic RP Attacks, Percent Change from Baseline, Median [10]: −30.00% | Average Duration of Weekly RP Attacks (All Attacks) Change from Baseline, Mean [11]: -4.77 min | Average Duration of Weekly RP Attacks (All Attacks) Change from Baseline, Median [11]: -2.73 min | Average Duration of Weekly RP Attacks (All Attacks) Percent Change from Baseline, Mean [11]: −13.86% | Average Duration of Weekly RP Attacks (All Attacks) Percent Change from Baseline, Median [11]: −2.74% | Average Duration of Weekly RP Attacks (All Attacks), Mean [11]: 27.61 min | Average Duration of Weekly RP Attacks (All Attacks), Median [11]: 22.36 min | Average Duration of Weekly RP Attacks (All Attacks) Change from Baseline, Mean [12]: 0.00 min | Average Duration of Weekly RP Attacks (All Attacks) Change from Baseline, Median [12]: 2.16 min | Average Duration of Weekly RP Attacks (All Attacks) Percent Change from Baseline, Mean [12]: −10.70% | Average Duration of Weekly RP Attacks (All Attacks) Percent Change from Baseline, Median [12]: 17.86% | Average Duration of Weekly RP Attacks (All Attacks), Mean [12]: 15.91 min | Average Duration of Weekly RP Attacks (All Attacks), Median [12]: 14.27 min | Average Duration of Weekly RP Attacks (All Attacks) Change from Baseline, Mean (Pooled Cilnidipine 20 mg and Cilnidipine 20 mg + Tadalafil 5 mg, Excluding Outliers, by Baseline RCS, subgroup 2, ITT Population - Part A): -19.09 min
